Measured values published in US8791126B2, “2-alkynyl-N9-propargyladenine and medicinal use thereof” (Yamasa Corporation, priority 2010, dated 2014).

Key:
[1] = system: haloperidol-induced catalepsy; assay: Haloperidol-induced catalepsy; type: in vivo; conditions: male ddY mice, haloperidol 1 mg/kg i.p., compound oral 0.03-10 mg/kg 1 hour later, scored 1, 3, 5, 7 hours; FIGS. 2-4
Procedure: Haloperidol is known to block dopamine receptors. This method is used generally as a method of evaluating the therapeutic effect of the therapeutic agents for Parkinson's syndrome, by using the effect of inducing catalepsy (when being made to take a certain posture or position of the limbs extrinsically, continuing to keep the posture as it is without willing to change it by oneself) caused by administration of haloperidol. The experiment was conducted by using 7 male ddY mice, 5-weeks old, per group. Haloperidol was suspended in 0.5% CMC, and then administered intraperitoneally to the mice at 1 mg/kg. In the study, as a test compound, the compounds each represented by the formula (4), the formula (5), the formula (10), the formula (11), the formula (12), the formula (13), or the formula (14) in the above synthesis examples were used, and as a positive control, KW-6002 (the test compound and KW-6002 were 0.03, 0.1, 0.3, 1, 3, 10 mg/kg) or L-DOPA (100 mg/kg)+benserazide (25 mg/kg) was used. The above 4 compounds were each suspended in 0.5% CMC, and orally administered to the mice 1 hour after the haloperidol administration. In addition, the case where only CMC was administered was designated as a control for the whole. After a lapse of 1, 3, 5, and 7 hours from the administration of the test compound, both forelimbs only, or both hindlimbs only, of a mouse were put in turn on an acrylic stand, height 4.5 cm, width 1.0 cm, and catalepsy was determined, and the state was scored as Table 2 below. [table]

[2] = target: T1, adenosine A2a receptor (Rattus norvegicus, UniProt P30543); assay: Adenosine A2a receptor antagonist activity by the Magnus method (excised femoral vein); type: cell-based; conditions: femoral vein of male Wistar rats, contracted with 10^−5 M serotonin, relaxed with 10^−7 M 2-octynyladenosine; FIG. 1
T1 construct: the femoral vein was excised from male Wistar rats; from tissue; host or cells: femoral vein of male Wistar rats
Procedure: In order to clarify the adenosine A2a receptor antagonist activity of the compound of the present invention, an evaluation by the Magnus method was conducted. The Magnus method is a method of evaluating the action of drugs using muscle contraction/relaxation as an index, and is used generally as a method for determining the antagonist activity.
In the evaluation, firstly, the femoral vein was excised from male Wistar rats. A Krebs-Henseleit solution aerated with O2 gas was filled in an organ bath and kept at 37° C., and the excised femoral vein was suspended therein under 0.5 g of resting tension. The contractile and relaxing response was determined via a pickup transducer.
In order to check the reactivity of the compound, firstly, the test compound was added dropwise in the organ bath. 10 minutes after the dropwise addition, serotonin was added dropwise in the organ bath such that the concentration thereof was 10^−5 M, to make the femoral vein contract. In a state where the contractile response was stable, 10^−7 M of an adenosine A2a receptor agonist, 2-octynyladenosine was administered to induce the relaxing response, and the inhibitory effect of the compound of the present invention and a positive control on the relaxing response was evaluated. Note that, in the representation of the results, the degree of the contraction at the time of addition of each substance was calculated, on condition that the degree of the relaxation when the compound of the present invention and the positive control were not added dropwise at all was designated as a control for the whole, and the degree of the relaxation for the control for the whole was set to be 100%.
As a compound of the present invention, the formula (3) compound, the formula (4) compound, the formula (5) compound, the formula (9) compound, and the formula (10) compound, which were described in the synthesis examples, were used. Note that the formula (9) compound is a publicly-known compound which has already been described in Patent Literature 2. In addition, as a positive control, 8-[(E)-2-(3,4-dimethoxyphenyl)vinyl]-1,3-diethyl-7-methyl-3,7-dihydro-1H-purin-2,6-dione (KW-6002) described in Patent Literature 1, which is an adenosine A2a receptor antagonist which has conventionally been deemed to have an effect on the treatment of Parkinson's syndrome, and the compound of the following formula (hereinafter referred to as “AT-compound”), which is shown in Patent Literature 3, compound No. 9 in [Table A], were used.

[3] = Photostability study in solid state; type: physicochemical; conditions: under a fluorescent light for 3 weeks, HPLC
Procedure: Of the compounds of the present invention, the formula (4) compound, the formula (10) compound, and the formula (11) compound were evaluated for their photostability in solid state.
The study was conducted in accordance with “Guideline for the Photostability Testing of New Drug Substances and Products.” That is, each compound in solid state was placed under a fluorescent light statically for 3 weeks, and the residual ratio was calculated from the HPLC analysis results before and after the placement.

[4] = system: 6-OHDA-induced unilaterally substantia nigra lesioned rats; assay: 6-OHDA-induced unilaterally substantia nigra lesioned rats, contralateral rotation; type: in vivo, rat; conditions: oral, administered singly, observed 5 hours, versus KW-6002; FIGS. 5-7
Procedure: 6-Hydroxydopamine (6-OHDA) is taken into neurons by dopamine reuptake transporters and acts as a neurotoxin, and is used for the selective denaturation and removal of dopaminergic neurons. This 6-OHDA was locally administered to the corpus striatum to induce the cell death of dopaminergic nerve and reduce dopamine, and thereby induce the symptoms of Parkinson's syndrome. In the study, 6-OHDA was injected into the right ventral tegmental area of male SD rats, 8-weeks old, and after 4 weeks, apomorphine (5 mg/kg, s.c.) was administered, and the animals which had shown a certain count of the counterclockwise rotation were selected. Using the model rats, the evaluation of the test compound as a therapeutic agent for Parkinson's syndrome was commenced.
Male SD rats, 8-weeks old, were anesthetized with pentobarbital (50 mg/kg), and the hairs were removed broadly from the occiput through the back of the neck, and then an ear bar was attached thereto, and the rats were fixed in a brain stereotaxic apparatus. The skin of the head was incised 3 to 4 cm with a scalpel, the periosteum was stripped off to expose the skull and the suture was checked. […] 4 weeks after the 6-OHDA administration, apomorphine (5 mg/kg, s.c.) was administered, and the count of the counterclockwise rotation for 5 minutes was counted from 5 minutes after the administration. […]

[5] = target: human adenosine A2a receptor (Homo sapiens, UniProt P29274); assay: Binding assay to human adenosine A2a receptor
human adenosine A2a receptor, sequence (P29274 whole entry): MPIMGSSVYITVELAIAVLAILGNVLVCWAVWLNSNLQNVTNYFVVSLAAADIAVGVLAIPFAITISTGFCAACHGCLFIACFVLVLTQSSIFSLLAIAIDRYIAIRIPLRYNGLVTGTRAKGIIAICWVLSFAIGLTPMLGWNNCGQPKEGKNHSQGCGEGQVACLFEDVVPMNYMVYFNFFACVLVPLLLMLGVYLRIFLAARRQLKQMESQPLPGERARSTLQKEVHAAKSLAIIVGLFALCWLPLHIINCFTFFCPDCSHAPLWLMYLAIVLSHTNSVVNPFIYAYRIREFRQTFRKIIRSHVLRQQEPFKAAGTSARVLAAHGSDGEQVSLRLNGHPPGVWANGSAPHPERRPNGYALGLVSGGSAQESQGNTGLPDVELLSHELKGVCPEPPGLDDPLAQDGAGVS
Procedure: In order to clarify the binding affinity of the compound of the present invention to a human adenosine A2a receptor, a binding assay for the human receptor and the compound of the present invention was conducted.

T1 sequence (P30543 whole entry): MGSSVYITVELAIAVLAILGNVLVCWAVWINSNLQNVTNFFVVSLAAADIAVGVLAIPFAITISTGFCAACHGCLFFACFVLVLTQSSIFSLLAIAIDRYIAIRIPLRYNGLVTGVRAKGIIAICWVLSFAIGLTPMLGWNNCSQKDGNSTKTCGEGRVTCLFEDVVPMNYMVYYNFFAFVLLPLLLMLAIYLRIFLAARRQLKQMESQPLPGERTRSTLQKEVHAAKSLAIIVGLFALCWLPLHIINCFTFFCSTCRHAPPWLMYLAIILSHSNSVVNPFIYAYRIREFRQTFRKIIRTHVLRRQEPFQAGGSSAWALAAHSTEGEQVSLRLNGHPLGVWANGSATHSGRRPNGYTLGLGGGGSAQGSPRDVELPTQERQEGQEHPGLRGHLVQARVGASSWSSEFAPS

Row | inhibition of the relaxing response of the femoral vein (adenosine A2a receptor antagonist activity) [2] | residual ratio [3] [%] | Ki [5] [nM] | Structure (SMILES) | score of catalepsy (improving effect on haloperidol-induced catalepsy) [1] | count of the contralateral rotation [4]
1 | more potent activity |  |  | C#CCn1c(-c2ccco2)nc2c(N)nc(C#CCCCCCC)nc21 [formula (5) compound, 8-(2-furyl)-2-(1-octyn-1-yl)-N^9-propargyl-adenine] | the catalepsy score was also kept low compared with that of L-DOPA or the formula (4) compound | 
2 | more potent activity | 98.8 |  | C#CCn1c(Br)nc2c(N)nc(C#CC3(O)CCCCC3)nc21 [formula (10) compound, 8-bromo-2-[2-(1-hydroxycyclohexyl)-1-ethyn-1-yl]-N^9-propargyladenine] | kept the score of catalepsy low, with a smaller dose than that of KW-6002 | exhibit an effect which is stronger and continuously increase the count of the contralateral rotation
3 | more potent activity | 99.0 | 0.581 | C#CCn1c(Br)nc2c(N)nc(C#CCCCCCC)nc21 [formula (4) compound, 8-bromo-2-(1-octyn-1-yl)-N^9-propargyladenine] | kept the score of catalepsy low, with a smaller dose than that of KW-6002 | exhibit an effect which is stronger and continuously increase the count of the contralateral rotation
4 | no potent activity |  |  | C#CCn1cnc2c(N)nc(C#CCC3CCN(C(=O)Oc4ccc(C(=O)OC)cc4)CC3)nc21 [AT-compound, reference compound] |  | 

The remaining lines, values behind:

Row | Structure (SMILES) | inhibition of the relaxing response of the femoral vein (adenosine A2a receptor antagonist activity) [2] | residual ratio [3] [%] | Ki [5] [nM] | score of catalepsy (improving effect on haloperidol-induced catalepsy) [1] | count of the contralateral rotation [4]
5 | C#CCn1c(Cl)nc2c(N)nc(C#CCCCCCC)nc21 [formula (12) compound, 8-chloro-2-(1-octynyl)-N^9-propargyladenine] |  |  |  | exhibit an effect for a long time, with a smaller dose than that of the positive control KW-6002 | 
6 | C#CCn1c(-n2nccn2)nc2c(N)nc(C#CCCCCCC)nc21 [formula (14) compound, 8-(1,2,3-triazol-2-yl)-2-(1-octynyl)-N^9-propargyladenine] |  |  |  | exhibit an effect for a long time, with a smaller dose than that of the positive control KW-6002 | 
7 | C#CCn1c(Cl)nc2c(N)nc(C#CC3(O)CCCCC3)nc21 [formula (13) compound, 8-chloro-2-[2-(1-hydroxycyclohexyl)-1-ethyn-1-yl]-N^9-propargyladenine] |  |  |  | exhibit an effect for a long time, with a smaller dose than that of the positive control KW-6002 | 
8 | C#CCn1c(-c2ccco2)nc2c(N)nc(C#CC3(O)CCCCC3)nc21 [formula (11) compound, 8-(2-furyl)-2-[2-(1-hydroxycyclohexyl)-1-ethyn-1-yl]-N^9-propargyladenine] |  | 100.2 |  | exhibit an effect for a long time, with a smaller dose than that of the positive control KW-6002 | 
